What all share (test): NCI anticancer screen, dose series, 48 h
Experiment [1] has as its system 786-0 renal.
In experiment [2] the test system is ACHN renal.
Experiment [3] has as its system COLO 205 colon.
Experiment [4] relates to DU-145 prostate.
In experiment [5] the test system is KM12 colon.
Experiment [6] concerns NCI-H522 lung.
The subject of experiment [7] is OVCAR-5 ovarian.
Experiment [8] relates to RXF 393 renal.
In experiment [9] the test system is SF-539 CNS.
In experiment [10] the test system is SNB-75 CNS.

“And” between values parts separate entries of the source, which are not always exact repeats. Equal entries are not always repeated.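 Cultured in 96-well plates, cells were exposed to test compound for 48 hours across five concentrations. GI50 is the concentration that inhibits growth by half. TGI: total growth inhibition.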

Consider `O=P([O-])(O)OP(=O)([O-])O.[NH-][C@@H]1CCCC[C@H]1[NH-].[Pt+4]`, for which the GI50 was 20.6 µM and 7.98 µM in experiment [1]; 4.78 µM and 5.63 µM in experiment [2]; 6.13 µM and 6.32 µM in experiment [3]; 25.9 µM and 12.2 µM in experiment [4]; 50.8 µM and 24 µM in [5]; 14.6 µM in [6]. Also, the GI50 in [7] was > 52.1 µM and 14.5 µM; in experiment [8] it was 41.7 µM and 13.6 µM; in experiment [9], 18.6 µM and 8.47 µM; in experiment [10], > 100 µM and 34 µM. In addition, the TGI in [1] was > 100 µM and 76.6 µM; in experiment [2] it was > 100 µM and 58.2 µM; in [3], > 100 µM and 21.5 µM; in experiment [4], over 100 µM; in [5], over 100 µM; in [6], over 100 µM. In addition, the TGI in experiment [7], in experiment [8], in experiment [9] and in [10] was over 100 µM in each case.

As to `COc1cc(C(c2cc3c(cc2O)OCO3)N2CCCCC2)cc(OC)c1OC` (stereo not given), the TGI in experiment [1] was 12.9 µM; in experiment [2] it was 31.1 µM; in experiment [3] it was 26.6 µM; in experiment [4], 35.6 µM; in experiment [5] it was 34 µM; in [6] it was 26.7 µM. The TGI in experiment [7] turned out to be 32.2 µM; in [8] it was 27.6 µM; in experiment [9] it was 33.9 µM; in experiment [10] it was 33.5 µM.

`NC(=N\N=C/c1cccc([N+](=O)[O-])c1)/C(N)=N\N=C/c1cccc([N+](=O)[O-])c1`: the GI50 in experiment [1], in experiment [2], in [3], in experiment [4], in experiment [5] and in experiment [6] was over 100 µM each time. The GI50 in experiment [7], in experiment [8], in [9] and in experiment [10] was over 100 µM each time. The TGI in experiment [1], in experiment [2], in experiment [3], in experiment [4], in [5] and in experiment [6] was over 100 µM throughout. Also, the TGI in [7], in experiment [8], in experiment [9] and in [10] was over 100 µM each time.

In the case of `C=CCN1C=CC(=O)[C@H](O[Si](C)(C)C(C)(C)C)[C@@H]1/C=C/c1ccccc1`, the GI50 is 15.4 µM in [1]; 15.5 µM in experiment [2]; 4.39 µM in experiment [3]; 15.7 µM in experiment [4]; 13.1 µM in [5]; 13 µM in experiment [6]. The GI50 in [7] is 17.5 µM; in experiment [8], 19 µM; in experiment [9] it was 16 µM; in [10] it was 10.5 µM. Moreover, the TGI worked out at 29.4 µM in experiment [1]; 29.2 µM in experiment [2]; 16.2 µM in [3]; 30.1 µM in [4]; 28.7 µM in experiment [5]; 28.3 µM in experiment [6]. For the same compound, the TGI in experiment [7] was determined as 31.9 µM; in experiment [8], 46.1 µM; in experiment [9], 30.1 µM; in [10] it was 22.7 µM.

Regarding `COc1cc2c(cc1OCCCCCCN1CCN(c3ncnc4ccccc34)CC1)N=CC1CCCN1C2=O` (stereo not given), the GI50 in [1] was 0.141 µM; in [2] it was 0.345 µM; in experiment [3] it was 0.0176 µM; in experiment [4], 0.12 µM; in [5] it was 0.116 µM; in [6] it was under 0.0145 µM. Moreover, the GI50 was 0.29 µM in experiment [7], 0.146 µM in experiment [8], 0.109 µM in experiment [9] and 0.0407 µM in [10]. For the same compound, the TGI was 0.649 µM in [1]; 12.3 µM in experiment [2]; 0.134 µM in experiment [3]; 0.548 µM in experiment [4]; 0.375 µM in experiment [5]; 0.135 µM in experiment [6]. Further, the TGI in [7] was found to be 13.4 µM; in [8], 0.325 µM; in experiment [9], 0.402 µM; in experiment [10], 0.256 µM.

For the compound `O=C1NC(=S)NC(=O)C1=Cc1cccc2cc3ccccc3cc12`, the TGI in experiment [1] was 3.42 µM; in experiment [2], 3.51 µM; in experiment [3] it was 3.7 µM; in [4], 3.63 µM; in experiment [5], 4.08 µM; in experiment [6], 4.36 µM. The TGI is 5.21 µM in experiment [7], 3.53 µM in [8], 3.1 µM in experiment [9] and 3.7 µM in experiment [10].

For `CC1=C2C[C@H]3[C@@H](CC=C4C[C@@H](O)CC[C@@]43C)[C@@H]2CC[C@]12O[C@@H]1C[C@H](C)CN[C@H]1[C@H]2C`, the GI50 was 15.5 µM and 17.3 µM in experiment [1]; 10.4 µM and 18.7 µM in experiment [2]; 13.6 µM and 4.28 µM in [3]; 27.9 µM and 25.8 µM in [4]; 41.3 µM and 23.4 µM in experiment [5]; 13.6 µM and 21.2 µM in [6]. Further, the GI50 in experiment [7] was 11.9 µM and 29.4 µM; in experiment [8], 6.01 µM; in [9], 21.3 µM and 20 µM; in [10] it was > 50 µM and 18.8 µM. The TGI in experiment [1] is 50 µM and 33.4 µM; in experiment [2], 22.3 µM and 41.4 µM; in experiment [3], 38.6 µM and 19.1 µM; in [4], 50 µM and 61.6 µM; in experiment [5], 50 µM and 54.7 µM; in [6], 44.7 µM and 39.7 µM. For the same compound, the TGI in [7] was 50 µM and 89.6 µM; in experiment [8], 27.9 µM and 12.3 µM; in [9], 50 µM and 37.8 µM; in experiment [10], > 50 µM and 42.7 µM.

Consider `COc1cc2c(Oc3ccc4[nH]c(C)cc4c3F)ccnc2cc1OCC1(N)CC1`, for which the GI50 is 1.02 µM in [1]; 2.05 µM in experiment [2]; 2.29 µM in [3]; 3.67 µM in [4]; 1.24 µM in experiment [5]; 1.27 µM in [6]. Also, the GI50 in experiment [7] was 3.37 µM; in [8], 0.671 µM; in experiment [9], 0.315 µM; in [10], 0.651 µM. Further, the TGI in experiment [1] was 3.46 µM; in experiment [2] it was 12.5 µM; in experiment [3], 5.61 µM; in experiment [4], over 100 µM; in experiment [5], 12.5 µM; in [6] it was 3.46 µM. The TGI in [7] was 10.3 µM; in experiment [8], 4.22 µM; in experiment [9], 1.81 µM; in [10], 2.46 µM.

For the origin of these results see PubChem BioAssay (NCI).
